From patent US12564638B2 (SHANGHAITECH UNIVERSITY, priority 2019, dated 2026)
Read-outs that look alike come from different tables or passages of the source.

Assays:
[1] = test system: HCC827 cells (EGFR Exon19 del, non-small cell lung cancer cells); assay: Cell viability assay (WST/CCK8), HCC827 cells; format: cell-based; conditions: Homo sapiens, HCC827, 72 h, HCC827 (Exon19 Del), 72 hours, read-out: IC50 (half inhibitory concentration)
How it was run: (§1)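 Plated 3 000 cells/well in complete RPMI1640 the day before dosing; controls were DMSO (negative) and EGFR TKIs (positive).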

[2] = test system: PC9 cells (EGFR Exon 19 del, non-small cell lung cancer cells); assay: Cell viability assay (WST/CCK8), PC9 cells; format: cell-based; conditions: Homo sapiens, PC-9, PC9 (Exon19 Del), 72 hours, read-out: IC50 (half inhibitory concentration)
How it was run: as §1

[3] = Table 6, canertinib-based compounds, WST

Row | Structure (SMILES) | IC50 ([1]; WST (CCK8)) | IC50 ([2]; WST (CCK8)) | IC50 [1, 3] | IC50 [2, 3]
1 | COc1cc2ncnc(Nc3ccc(F)c(Cl)c3)c2cc1NC(=O)/C=C/CN1CCN(C(=O)CCOCCOCCNc2cccc3c2C(=O)N(C2CCC(=O)NC2=O)C3=O)CC1 (stereo not drawn) [SIAIS262013, (E)-N-(4-((3-chloro-4-fluorophenyl)amino)-7-methoxyquinazolin-6-yl)-4-(4-(3-(2-(2-((2-(2,6-dioxopiperidin-3-yl)-1,3-dioxoisoindolin-4-yl)amino)ethoxy)ethoxy)propanoyl)piperazin-1-yl)but-2-enamide] | 0.0358 µM | 0.028 µM | – | –
2 | COc1cc2ncnc(Nc3ccc(F)c(Cl)c3)c2cc1NC(=O)/C=C/CN1CCN(C(=O)CCOCCOCCOCCOCCNc2cccc3c2C(=O)N(C2CCC(=O)NC2=O)C3=O)CC1 (stereo not drawn) [SIAIS262014, (E)-N-(4-((3-chloro-4-fluorophenyl)amino)-7-methoxyquinazolin-6-yl)-4-(4-(1-((2-(2,6-dioxopiperidin-3-yl)-1,3-dioxoisoindolin-4-yl)amino)-3,6,9,12-tetraoxapentadecan-15-oyl)piperazin-1-yl)but-2-enamide] | 0.0395 µM | 0.128 µM | – | –
3 | COc1cc2ncnc(Nc3ccc(F)c(Cl)c3)c2cc1NC(=O)/C=C/CN1CCN(C(=O)CCCCCCNc2cccc3c2C(=O)N(C2CCC(=O)NC2=O)C3=O)CC1 (stereo not drawn) [SIAIS262015, (E)-N-(4-((3-chloro-4-fluorophenyl)amino)-7-methoxyquinazolin-6-yl)-4-(4-(7-((2-(2,6-dioxopiperidin-3-yl)-1,3-dioxoisoindolin-4-yl)amino)heptanoyl)piperazin-1-yl)but-2-enamide] | 0.003 µM | 0.012 µM | – | –
4 | COc1cc2ncnc(Nc3ccc(F)c(Cl)c3)c2cc1NC(=O)/C=C/CN1CCN(C(=O)CCNc2cccc3c2C(=O)N(C2CCC(=O)NC2=O)C3=O)CC1 (stereo not drawn) [SIAIS262016, (E)-N-(4-((3-chloro-4-fluorophenyl)amino)-7-methoxyquinazolin-6-yl)-4-(4-(3-((2-(2,6-dioxopiperidin-3-yl)-1,3-dioxoisoindolin-4-yl)amino)propanoyl)piperazin-1-yl)but-2-enamide] | 0.0045 µM | 0.112 µM | – | –
5 | COc1cc2ncnc(Nc3ccc(F)c(Cl)c3)c2cc1NC(=O)/C=C/CN1CCC(N2CCN(CCCC#Cc3cccc4c3CN(C3CCC(=O)NC3=O)C4=O)CC2)CC1 (stereo not drawn) [SIAIS262050, (E)-N-(4-((3-chloro-4-fluorophenyl)amino)-7-methoxyquinazolin-6-yl)-4-(4-(4-(5-(2-(2,6-dioxopiperidin-3-yl)-1-oxoisoindolin-4-yl)pent-4-yn-1-yl)piperazin-1-yl)piperidin-1-yl)but-2-enamide] | 0.0008 µM | 0.0099 µM | – | –
6 | COc1cc2ncnc(Nc3ccc(F)c(Cl)c3)c2cc1NC(=O)/C=C/CN1CCC(N2CCN(CCCCC#Cc3cccc4c3CN(C3CCC(=O)NC3=O)C4=O)CC2)CC1 (stereo not drawn) [SIAIS262051, (E)-N-(4-((3-chloro-4-fluorophenyl)amino)-7-methoxyquinazolin-6-yl)-4-(4-(4-(6-(2-(2,6-dioxopiperidin-3-yl)-1-oxoisoindolin-4-yl)hex-5-yn-1-yl)piperazin-1-yl)piperidin-1-yl)but-2-enamide] | 0.0025 µM | 0.0025 µM | – | –
7 | COc1cc2ncnc(Nc3ccc(F)c(Cl)c3)c2cc1NC(=O)/C=C/CN1CCC(N2CCN(C(=O)CCc3cccc4c3CN(C3CCC(=O)NC3=O)C4=O)CC2)CC1 (stereo not drawn) [SIAIS262052, (E)-N-(4-((3-chloro-4-fluorophenyl)amino)-7-methoxyquinazolin-6-yl)-4-(4-(4-(3-(2-(2,6-dioxopiperidin-3-yl)-1-oxoisoindolin-4-yl)propanoyl)piperazin-1-yl)piperidin-1-yl)but-2-enamide] | 0.0014 µM | 0.0013 µM | – | –
8 | COc1cc2ncnc(Nc3ccc(F)c(Cl)c3)c2cc1NC(=O)/C=C/CN1CCC(N2CCN(CCCCCCSc3cccc4c3CN(C3CCC(=O)NC3=O)C4=O)CC2)CC1 (stereo not drawn) [SIAIS262065, (E)-N-(4-((3-chloro-4-fluorophenyl)amino)-7-methoxyquinazolin-6-yl)-4-(4-(4-(6-((2-(2,6-dioxopiperidin-3-yl)-1-oxoisoindolin-4-yl)thio)hexyl)piperazin-1-yl)piperidin-1-yl)but-2-enamide] | 0.0031 µM | 0.185 µM | – | –
9 | COc1cc2ncnc(Nc3ccc(F)c(Cl)c3)c2cc1NC(=O)/C=C/CN1CCC(NC(=O)CSc2cccc3c2CN(C2CCC(=O)NC2=O)C3=O)CC1 (stereo not drawn) [SIAIS262110, (E)-N-(4-((3-chloro-4-fluorophenyl)amino)-7-methoxyquinazolin-6-yl)-4-(4-(2-((2-(2,6-dioxopiperidin-3-yl)-1-oxoisoindolin-4-yl)thio)acetamido)piperidin-1-yl)but-2-enamide] | 0.02 µM | 0.073 µM | – | –
10 | COc1cc2ncnc(Nc3ccc(F)c(Cl)c3)c2cc1NC(=O)/C=C/CN1CCC(NC(=O)CCCSc2cccc3c2CN(C2CCC(=O)NC2=O)C3=O)CC1 (stereo not drawn) [SIAIS262112, (E)-N-(4-((3-chloro-4-fluorophenyl)amino)-7-methoxyquinazolin-6-yl)-4-(4-(4-((2-(2,6-dioxopiperidin-3-yl)-1-oxoisoindolin-4-yl)thio)butanamido)piperidin-1-yl)but-2-enamide] | 0.014 µM | 0.0425 µM | – | –
11 | C=CC(=O)Nc1cc2c(Nc3ccc(F)c(Cl)c3)ncnc2cc1OCCCN1CCN(C(=O)CCOCCOCCOCCOCCC(=O)N[C@H](C(=O)N2C[C@H](O)C[C@H]2C(=O)NCc2ccc(-c3scnc3C)cc2)C(C)(C)C)CC1 [SIAIS262130, (2S,4R)-1-((S)-19-(4-(3-((6-acrylamido-4-((3-chloro-4-fluorophenyl)amino)quinazolin-7-yl)oxy)propyl)piperazin-1-yl)-2-(tert-butyl)-4,19-dioxo-7,10,13,16-tetraoxa-3-azanonadecanoyl)-4-hydroxy-N-(4-(4-methylthiazol-5-yl)benzyl)pyrrolidine-2-carboxamide] | – | – | 0.0472 µM | 0.179 µM
12 | COc1cc2ncnc(Nc3ccc(F)c(Cl)c3)c2cc1NC(=O)/C=C/CN1CCC(N2CCN(Cc3ccc(CSc4cccc5c4CN(C4CCC(=O)NC4=O)C5=O)cc3)CC2)CC1 (stereo not drawn) [SIAIS337021, (E)-N-(4-((3-chloro-4-fluorophenyl)amino)-7-methoxyquinazolin-6-yl)-4-(4-(4-(4-(((2-(2,6-dioxopiperidin-3-yl)-1-oxoisoindolin-4-yl)thio)methyl)benzyl)piperazin-1-yl)piperidin-1-yl)but-2-enamide] | 0.0013 µM | 0.074 µM | – | –
13 | COc1cc2ncnc(Nc3ccc(F)c(Cl)c3)c2cc1NC(=O)/C=C/CN1CCC(N2CCN(C(=O)COc3cccc4c3CN(C3CCC(=O)NC3=O)C4=O)CC2)CC1 (stereo not drawn) [SIAIS337025, (E)-N-(4-((3-chloro-4-fluorophenyl)amino)-7-methoxyquinazolin-6-yl)-4-(4-(4-(2-((2-(2,6-dioxopiperidin-3-yl)-1-oxoisoindolin-4-yl)oxy)acetyl)piperazin-1-yl)piperidin-1-yl)but-2-enamide] | 0.0056 µM | 0.036 µM | – | –
14 | COc1cc2ncnc(Nc3ccc(F)c(Cl)c3)c2cc1NC(=O)/C=C/CN1CCC(N2CCN(C(=O)CCCCOc3cccc4c3CN(C3CCC(=O)NC3=O)C4=O)CC2)CC1 (stereo not drawn) [SIAIS337026, (E)-N-(4-((3-chloro-4-fluorophenyl)amino)-7-methoxyquinazolin-6-yl)-4-(4-(4-(5-((2-(2,6-dioxopiperidin-3-yl)-1-oxoisoindolin-4-yl)oxy)pentanoyl)piperazin-1-yl)piperidin-1-yl)but-2-enamide] | 0.0005 µM | 0.0086 µM | – | –
15 | COc1cc2ncnc(Nc3ccc(F)c(Cl)c3)c2cc1NC(=O)/C=C/CN1CCC(N2CCN(C(=O)CCCCCOc3cccc4c3CN(C3CCC(=O)NC3=O)C4=O)CC2)CC1 (stereo not drawn) [SIAIS337027, (E)-N-(4-((3-chloro-4-fluorophenyl)amino)-7-methoxyquinazolin-6-yl)-4-(4-(4-(6-((2-(2,6-dioxopiperidin-3-yl)-1-oxoisoindolin-4-yl)oxy)hexanoyl)piperazin-1-yl)piperidin-1-yl)but-2-enamide] | 0.0011 µM | 0.0132 µM | – | –
16 | COc1cc2ncnc(Nc3ccc(F)c(Cl)c3)c2cc1NC(=O)/C=C/CN1CCC(N2CCN(C(=O)CCCCCCOc3cccc4c3CN(C3CCC(=O)NC3=O)C4=O)CC2)CC1 (stereo not drawn) [SIAIS337028, (E)-N-(4-((3-chloro-4-fluorophenyl)amino)-7-methoxyquinazolin-6-yl)-4-(4-(4-(7-((2-(2,6-dioxopiperidin-3-yl)-1-oxoisoindolin-4-yl)oxy)heptanoyl)piperazin-1-yl)piperidin-1-yl)but-2-enamide] | 0.0009 µM | 0.0203 µM | – | –
17 | COc1cc2ncnc(Nc3ccc(F)c(Cl)c3)c2cc1NC(=O)/C=C/CN1CCC(N2CCN(CCCCCCOc3cccc4c3CN(C3CCC(=O)NC3=O)C4=O)CC2)CC1 (stereo not drawn) [SIAIS337029, (E)-N-(4-((3-chloro-4-fluorophenyl)amino)-7-methoxyquinazolin-6-yl)-4-(4-(4-(6-((2-(2,6-dioxopiperidin-3-yl)-1-oxoisoindolin-4-yl)oxy)hexyl)piperazin-1-yl)piperidin-1-yl)but-2-enamide] | 0.0003 µM | 0.0284 µM | – | –
18 | COc1cc2ncnc(Nc3ccc(F)c(Cl)c3)c2cc1NC(=O)/C=C/CN1CCC(N2CCN(C(=O)CCCCCNc3cccc4c3CN(C3CCC(=O)NC3=O)C4=O)CC2)CC1 (stereo not drawn) [SIAIS337035, (E)-N-(4-((3-chloro-4-fluorophenyl)amino)-7-methoxyquinazolin-6-yl)-4-(4-(4-(6-((2-(2,6-dioxopiperidin-3-yl)-1-oxoisoindolin-4-yl)amino)hexanoyl)piperazin-1-yl)piperidin-1-yl)but-2-enamide] | 0.0043 µM | 0.0063 µM | – | –
